In paper PMC7562955 (Nature Communications, 2020):

Target: T1, TLR7 (Homo sapiens, UniProt Q9NYK1)
T1 sequence (Q9NYK1 27-1049): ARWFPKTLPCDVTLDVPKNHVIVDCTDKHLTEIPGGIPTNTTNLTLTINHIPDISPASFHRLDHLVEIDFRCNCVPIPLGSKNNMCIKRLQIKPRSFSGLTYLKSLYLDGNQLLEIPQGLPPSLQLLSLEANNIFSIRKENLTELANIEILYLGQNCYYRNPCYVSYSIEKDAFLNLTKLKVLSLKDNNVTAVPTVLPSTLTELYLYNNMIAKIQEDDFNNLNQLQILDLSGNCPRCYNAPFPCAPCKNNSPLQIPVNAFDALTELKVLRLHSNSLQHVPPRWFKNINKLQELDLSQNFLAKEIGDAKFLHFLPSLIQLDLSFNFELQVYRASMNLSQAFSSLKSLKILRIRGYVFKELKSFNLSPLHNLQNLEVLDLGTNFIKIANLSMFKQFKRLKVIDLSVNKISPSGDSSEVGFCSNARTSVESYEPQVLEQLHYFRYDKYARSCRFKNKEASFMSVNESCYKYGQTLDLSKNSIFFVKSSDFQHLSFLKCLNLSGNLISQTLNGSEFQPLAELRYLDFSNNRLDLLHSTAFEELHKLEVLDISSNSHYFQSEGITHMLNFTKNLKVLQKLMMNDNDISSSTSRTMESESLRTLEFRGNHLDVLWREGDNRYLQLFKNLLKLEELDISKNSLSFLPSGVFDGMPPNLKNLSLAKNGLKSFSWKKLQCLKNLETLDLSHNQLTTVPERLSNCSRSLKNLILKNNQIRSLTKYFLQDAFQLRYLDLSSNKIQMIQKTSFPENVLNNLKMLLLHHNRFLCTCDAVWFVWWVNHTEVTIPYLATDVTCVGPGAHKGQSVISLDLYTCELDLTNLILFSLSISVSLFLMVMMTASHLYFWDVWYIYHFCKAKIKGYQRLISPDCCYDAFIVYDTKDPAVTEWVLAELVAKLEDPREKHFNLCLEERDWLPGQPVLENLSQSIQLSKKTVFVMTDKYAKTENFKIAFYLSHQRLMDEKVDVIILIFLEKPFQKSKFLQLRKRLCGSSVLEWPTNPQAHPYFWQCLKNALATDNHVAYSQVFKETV
Test: Dose-response relationship between antagonist and R848, human TLR7 reporter gene assay
Assay type: cell-based
Set-up: host or cells: HEK293 (TLR7/NF-κB/SEAPorter)
Method: Compounds were dissolved in dimethyl sulfoxide. Human TLR7 reporter cell line (Novus Biological) were seeded in 96-well microtiter plate (AGC techno glass) at 5 × 10^4 cells/well in DMEM (GIBCO) with 10% fetal bovine serum (GIBCO), and 10 μg ml^−1 Blastcidin S HCl (GIBCO) and incubated at 37 °C in 5% CO2. The plates were incubated over-night and then addition with various concentrations of compound. After 30 min, R848 (human TLR7/8 ligand) that was diluted with the medium was added, wherein final concentration was adjusted to 0.01, 0.03, 0.1, 0.3, 1, 3, 10, 30, 100, 300 and 1000 μM. The plates were then incubated an additional 20 ± 1 h at 37 °C in 5% CO2, and then the SEAP activity was measured as activation of human TLR7. The SEAP activity was evaluated as follows: pNPP (Invitrogen) was added to the incubated sample (50 μl/well); after 15 min, 4 mol l^−1 sodium hydroxide solution (nacalai tesque) was added thereto (50 μl/well) to quench the reaction; and the absorbance of each sample was measured at 405 nm with microplate reader SpectraMax M4 (Molecular Devices).

SMILES: CCOc1nc(C)c2nc(-c3cncc(F)c3)n(Cc3ccc(CN4C[C@@H]5C[C@H]4CN5C)cc3)c2n1 [Cpd-7]
- mode of action against R848: acted as antagonists
- TLR7 reporter signal (Cpd-7 0.001 µM, log10[R848 (µM)] 0): 15.1994
- TLR7 reporter signal (Cpd-7 0.001 µM, log10[R848 (µM)] 0.477121): 53.0748
- TLR7 reporter signal (Cpd-7 0.001 µM, log10[R848 (µM)] 1): 91.3639
- TLR7 reporter signal (Cpd-7 0.001 µM, log10[R848 (µM)] 1.47712): 103.082
- TLR7 reporter signal (Cpd-7 0.001 µM, log10[R848 (µM)] 2): 104.508
- TLR7 reporter signal (Cpd-7 0.001 µM, log10[R848 (µM)] 2.47712): 104.681
- TLR7 reporter signal (Cpd-7 0.001 µM, log10[R848 (µM)] 3): 101.38
- TLR7 reporter signal (Cpd-7 0.001 µM, log10[R848 (µM)] -0.522879): 2.983
- TLR7 reporter signal (Cpd-7 0.001 µM, log10[R848 (µM)] -1): 1.3957
- TLR7 reporter signal (Cpd-7 0.001 µM, log10[R848 (µM)] -1.52288): 1.22
- TLR7 reporter signal (Cpd-7 0.001 µM, log10[R848 (µM)] -2): 0.09581
- TLR7 reporter signal (Cpd-7 0.003 µM, log10[R848 (µM)] 0): 11.9465
- TLR7 reporter signal (Cpd-7 0.003 µM, log10[R848 (µM)] 0.477121): 48.0206
- TLR7 reporter signal (Cpd-7 0.003 µM, log10[R848 (µM)] 1): 90.4952
- TLR7 reporter signal (Cpd-7 0.003 µM, log10[R848 (µM)] 1.47712): 102.689
- TLR7 reporter signal (Cpd-7 0.003 µM, log10[R848 (µM)] 2): 104.173
- TLR7 reporter signal (Cpd-7 0.003 µM, log10[R848 (µM)] 2.47712): 102.967
- TLR7 reporter signal (Cpd-7 0.003 µM, log10[R848 (µM)] 3): 101.934
- TLR7 reporter signal (Cpd-7 0.003 µM, log10[R848 (µM)] -0.522879): 2.073
- TLR7 reporter signal (Cpd-7 0.003 µM, log10[R848 (µM)] -1): 1.332
- TLR7 reporter signal (Cpd-7 0.003 µM, log10[R848 (µM)] -1.52288): 1.335
- TLR7 reporter signal (Cpd-7 0.003 µM, log10[R848 (µM)] -2): -0.4152
- TLR7 reporter signal (Cpd-7 0.01 µM, log10[R848 (µM)] 3): 101.214
- TLR7 reporter signal (Cpd-7 0.1 µM, log10[R848 (µM)] 0): 3.483
- TLR7 reporter signal (Cpd-7 0.1 µM, log10[R848 (µM)] 0.477121): 8.9858
- TLR7 reporter signal (Cpd-7 0.1 µM, log10[R848 (µM)] 1): 46.2209
- TLR7 reporter signal (Cpd-7 0.1 µM, log10[R848 (µM)] 1.47712): 89.5722
- TLR7 reporter signal (Cpd-7 0.1 µM, log10[R848 (µM)] 2): 103.066
- TLR7 reporter signal (Cpd-7 0.1 µM, log10[R848 (µM)] 2.47712): 105.195
- TLR7 reporter signal (Cpd-7 0.1 µM, log10[R848 (µM)] 3): 99.2702
- TLR7 reporter signal (Cpd-7 0.1 µM, log10[R848 (µM)] -0.522879): 1.691
- TLR7 reporter signal (Cpd-7 0.1 µM, log10[R848 (µM)] -1): 1.377
- TLR7 reporter signal (Cpd-7 0.1 µM, log10[R848 (µM)] -1.52288): 1.495
- TLR7 reporter signal (Cpd-7 0.1 µM, log10[R848 (µM)] -2): -0.1134
- TLR7 reporter signal (Cpd-7 0.3 µM, log10[R848 (µM)] 0): 1.803
- TLR7 reporter signal (Cpd-7 0.3 µM, log10[R848 (µM)] 0.477121): 3.628
- TLR7 reporter signal (Cpd-7 0.3 µM, log10[R848 (µM)] 1): 15.5922
- TLR7 reporter signal (Cpd-7 0.3 µM, log10[R848 (µM)] 1.47712): 56.9825
- TLR7 reporter signal (Cpd-7 0.3 µM, log10[R848 (µM)] 2): 94.1266
- TLR7 reporter signal (Cpd-7 0.3 µM, log10[R848 (µM)] 2.47712): 104.981
- TLR7 reporter signal (Cpd-7 0.3 µM, log10[R848 (µM)] 3): 99.9984
- TLR7 reporter signal (Cpd-7 0.3 µM, log10[R848 (µM)] -0.522879): 2.988
- TLR7 reporter signal (Cpd-7 0.3 µM, log10[R848 (µM)] -1): 1.0827
- TLR7 reporter signal (Cpd-7 0.3 µM, log10[R848 (µM)] -1.52288): 0.3928
- TLR7 reporter signal (Cpd-7 0.3 µM, log10[R848 (µM)] -2): -0.2667
- TLR7 reporter signal (Cpd-7 1 µM, log10[R848 (µM)] 0): 1.865
- TLR7 reporter signal (Cpd-7 1 µM, log10[R848 (µM)] 0.477121): 1.87
- TLR7 reporter signal (Cpd-7 1 µM, log10[R848 (µM)] 1): 3.318
- TLR7 reporter signal (Cpd-7 1 µM, log10[R848 (µM)] 1.47712): 15.4645
- TLR7 reporter signal (Cpd-7 1 µM, log10[R848 (µM)] 2): 58.664
- TLR7 reporter signal (Cpd-7 1 µM, log10[R848 (µM)] 2.47712): 94.6679
- TLR7 reporter signal (Cpd-7 1 µM, log10[R848 (µM)] 3): 98.5819
- TLR7 reporter signal (Cpd-7 1 µM, log10[R848 (µM)] -0.522879): 2.201
- TLR7 reporter signal (Cpd-7 1 µM, log10[R848 (µM)] -1): 1.343
- TLR7 reporter signal (Cpd-7 1 µM, log10[R848 (µM)] -1.52288): 0.6276
- TLR7 reporter signal (Cpd-7 1 µM, log10[R848 (µM)] -2): -0.3625
- TLR7 reporter signal (Cpd-7 3 µM, log10[R848 (µM)] 0): 1.3957
- TLR7 reporter signal (Cpd-7 3 µM, log10[R848 (µM)] 0.477121): 2.034
- TLR7 reporter signal (Cpd-7 3 µM, log10[R848 (µM)] 1): 1.935
- TLR7 reporter signal (Cpd-7 3 µM, log10[R848 (µM)] 1.47712): 4.379
- TLR7 reporter signal (Cpd-7 3 µM, log10[R848 (µM)] 2): 17.1093
- TLR7 reporter signal (Cpd-7 3 µM, log10[R848 (µM)] 2.47712): 59.4864
- TLR7 reporter signal (Cpd-7 3 µM, log10[R848 (µM)] 3): 88.3569
- TLR7 reporter signal (Cpd-7 3 µM, log10[R848 (µM)] -0.522879): 2.494
- TLR7 reporter signal (Cpd-7 3 µM, log10[R848 (µM)] -1): 1.782
- TLR7 reporter signal (Cpd-7 3 µM, log10[R848 (µM)] -1.52288): 0.9374
- TLR7 reporter signal (Cpd-7 3 µM, log10[R848 (µM)] -2): -0.1469
- TLR7 reporter signal (Cpd-7 10 µM, log10[R848 (µM)] 0): 1.161
- TLR7 reporter signal (Cpd-7 10 µM, log10[R848 (µM)] 0.477121): 1.935
- TLR7 reporter signal (Cpd-7 10 µM, log10[R848 (µM)] 1): 1.487
- TLR7 reporter signal (Cpd-7 10 µM, log10[R848 (µM)] 1.47712): 2.632
- TLR7 reporter signal (Cpd-7 10 µM, log10[R848 (µM)] 2): 3.275
- TLR7 reporter signal (Cpd-7 10 µM, log10[R848 (µM)] 2.47712): 13.6775
- TLR7 reporter signal (Cpd-7 10 µM, log10[R848 (µM)] 3): 50.3984
- TLR7 reporter signal (Cpd-7 10 µM, log10[R848 (µM)] -0.522879): 2.055
- TLR7 reporter signal (Cpd-7 10 µM, log10[R848 (µM)] -1): 1.301
- TLR7 reporter signal (Cpd-7 10 µM, log10[R848 (µM)] -1.52288): 0.4759
- TLR7 reporter signal (Cpd-7 10 µM, log10[R848 (µM)] -2): -0.6883
- TLR7 reporter signal (Cpd-7 30 µM, log10[R848 (µM)] 0): 1.6017
- TLR7 reporter signal (Cpd-7 30 µM, log10[R848 (µM)] 0.477121): 2.2708
- TLR7 reporter signal (Cpd-7 30 µM, log10[R848 (µM)] 1): 2.316
- TLR7 reporter signal (Cpd-7 30 µM, log10[R848 (µM)] 1.47712): 3.334
- TLR7 reporter signal (Cpd-7 30 µM, log10[R848 (µM)] 2): 2.078
- TLR7 reporter signal (Cpd-7 30 µM, log10[R848 (µM)] 2.47712): 2.285
- TLR7 reporter signal (Cpd-7 30 µM, log10[R848 (µM)] 3): 8.593
- TLR7 reporter signal (Cpd-7 30 µM, log10[R848 (µM)] -0.522879): 2.676
- TLR7 reporter signal (Cpd-7 30 µM, log10[R848 (µM)] -1): 1.493
- TLR7 reporter signal (Cpd-7 30 µM, log10[R848 (µM)] -1.52288): 0.7617
- TLR7 reporter signal (Cpd-7 30 µM, log10[R848 (µM)] -2): -0.5701
- TLR7 reporter signal (Cpd-7 100 µM, log10[R848 (µM)] 0): 1.319
- TLR7 reporter signal (Cpd-7 100 µM, log10[R848 (µM)] 0.477121): 2.528
- TLR7 reporter signal (Cpd-7 100 µM, log10[R848 (µM)] 1): 1.127
- TLR7 reporter signal (Cpd-7 100 µM, log10[R848 (µM)] 1.47712): 2.558
- TLR7 reporter signal (Cpd-7 100 µM, log10[R848 (µM)] 2): 1.63
- TLR7 reporter signal (Cpd-7 100 µM, log10[R848 (µM)] 2.47712): 1.53
- TLR7 reporter signal (Cpd-7 100 µM, log10[R848 (µM)] 3): 0.3114
- TLR7 reporter signal (Cpd-7 100 µM, log10[R848 (µM)] -0.522879): 1.865
- TLR7 reporter signal (Cpd-7 100 µM, log10[R848 (µM)] -1): 1.004
- TLR7 reporter signal (Cpd-7 100 µM, log10[R848 (µM)] -1.52288): 0.5685
- TLR7 reporter signal (Cpd-7 100 µM, log10[R848 (µM)] -2): -0.7138
